Consider 13 compounds from patent US11484543B2, “Compositions and methods for diagnosing and treating diseases and disorders associated with mutant KCNJ5” (The Rockefeller University, priority 2017, dated 2022).

Holding throughout (type): cell-based
One assay has as its target T1, KCNJ5^WT (Homo sapiens, UniProt P48544).
T1 construct: expressed in transfected cells
T1 sequence (P48544 1-419): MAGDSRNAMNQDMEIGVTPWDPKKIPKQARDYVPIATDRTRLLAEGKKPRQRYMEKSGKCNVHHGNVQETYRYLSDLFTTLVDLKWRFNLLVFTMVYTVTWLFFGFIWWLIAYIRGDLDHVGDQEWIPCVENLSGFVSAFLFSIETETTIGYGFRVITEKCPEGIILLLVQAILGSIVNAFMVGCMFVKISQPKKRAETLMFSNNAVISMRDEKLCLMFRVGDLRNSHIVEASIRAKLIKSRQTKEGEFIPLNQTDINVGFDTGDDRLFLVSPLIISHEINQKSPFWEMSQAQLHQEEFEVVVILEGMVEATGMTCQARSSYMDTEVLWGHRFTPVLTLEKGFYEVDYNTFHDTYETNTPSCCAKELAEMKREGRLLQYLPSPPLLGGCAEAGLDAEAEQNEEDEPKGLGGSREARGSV
As to the kind of experiment: Membrane potential assay (FLIPR dye) in inducible KCNJ5^WT HEK293 cells. As to conditions: 10-point dilution 20 to 0.0391 μM, N=3, four-parameter fit. The protocol:
Single copies of WT or mutant human KCNJ5 cDNAs expressed under the control of tetracycline-inducible promoter were introduced into HEK293 cells using the Flp-in T-Rex System (Invitrogen) according to the manufacturer's instructions. Cells were grown in selective media containing 10% Tet-system approved FBS (Clontech) until induction.
20 μL of WT cells were plated into sterile black with clear bottom tissue culture-treated 384-well plates (Corning) at a density of 10000 cells/well using a Multidrop Combi. Assay plates were centrifuged at 500 rpm for 10 seconds and incubated overnight at 37° C. in a humidified 5% CO2 incubator. After the overnight incubation, 1 μL of tetracycline (final conc. 1 μg/mL) was added to all wells by Multidrop Combi to induce KCNJ5. Assay plates were centrifuged at 500 rpm for 10 seconds and incubated overnight at 37° C. in a humidified 5% CO2 incubator. The next day, 10 μL of medium was removed from each well using a PlateMate Plus (Thermo Scientific). 10 μL of Blue Formula FLIPR membrane potential dye (Molecular Devices) was added to cells using a Multichannel pipettor. Assay plates were incubated for 30 minutes. at 37° C. After incubation, 20 nL was transferred twice from the compound source plate to the cell assay plate using an Aquarius with a 384-well pin tool for a total transfer volume of 40 nL and a final DMSO concentration of 0.2%. 1 μL of 20 mM BaCl2 was added to positive control wells using a Multichannel pipettor. The assay plate was incubated 20 minutes at room temperature in the dark.
Changes in membrane potential were detected using a well-established fluorescence-based measure of membrane potential (FIG. 4).

A further assay concerns the target T2, KCNJ5^L168R (Homo sapiens, UniProt P48544, L168R).
T2 construct: expressed in transfected cells
T2 sequence (P48544 1-419 L168R): T1 sequence (P48544 1-419) with L168R
As to the kind of experiment: Cell viability assay (ATP, CellTiter-Glo): rescue of KCNJ5^L168R-induced lethality in inducible HEK293 cells. As to conditions: for dose response on KCNJ5^L168R: tested at 1.1, 3.3 and 10 μM. The protocol: (§1) WT or mutant human KCNJ5 cDNAs (Choi et al., 2011, Science 331:768-772) were subcloned into the pcDNA5/FRT/TO vector using BamHI and HindIII. Single copies of WT or mutant human KCNJ5 cDNAs expressed under the control of tetracycline-inducible promoter were introduced into HEK293 cells using the Flp-in T-Rex System (Invitrogen) according to the manufacturer's instructions. Cells were grown in selective media containing 10% Tet-system approved FBS (Clontech) until induction.
(§2) Assay plates were centrifuged and incubated overnight at 37° C. 20 nL was transferred from the compound source plate to the cell assay plate using an Aquarius (Tecan) with a 384-well pin tool (V&P Scientific). The final concentration of compound for screening was 10 μM and the final DMSO concentration was 0.1%. 1 μL of tetracycline (final concentration 1 μg/mL) was added to compound containing and negative control wells by Multidrop Combi to induce expression. 1 μL of media was added to positive control wells. Assay plates were centrifuged and incubated for 72 hours at 37° C., 5% CO2. CellTiter-Glo (Promega) was used to measure cell viability in the assay wells according to the manufacturer's instructions. 10 μL/well of CellTiter-Glo reagent was added to the assay plates using a MultiDrop Combi. The plates were shaken on a Thermomixer R (Eppendorf) at 1100 rpm for 1 minute and incubated in the dark for 10 minutes at room temperature. Luminescence was read on an Envision plate reader (PerkinElmer) with 0.3 second sampling time per well. Raw data (luminescence counts per second) was normalized to percent effect by the formula 100−(((sample−negative control mean)/(positive control mean−negative control mean))*100).
(§3) Data was analyzed using the programs Excel (Microsoft) and Prism (GraphPad). Errors are SD unless otherwise indicated in the legend. Dose-response curves were fitted with a four-parameter logistic equation: F(x)=D+(A−D)/(1+(x/C)^B), with A=minimum inhibition B=Hill's slope C=inflection point D=maximum inhibition Synthesis of Macrolide Derivatives
(§4) Cellular ATP levels were measured as a proxy for cell viability, using a commercially available luciferase assay (Crouch et al., 1993, Proc. Natl. Acad. Sci. U.S.A. 109:2533-2538).
(§5) Conditions were designed to maximize reproducibility and the signal-to-background ratios (S/B) (Zhang et al., 1999, J. Biomol. Screen 4:67-73) comparing ATP level in uninduced and induced cells. Screening was performed in 384-well plates; compounds were added 24 hours after plating, and channel expression was induced immediately after compound addition. ATP levels were measured 72 hours after induction.

The next assay deals with T3, KCNJ5^G151R (Homo sapiens, UniProt P48544, G151R).
T3 construct: expressed in transfected cells
T3 sequence (P48544 1-419 G151R): T1 sequence (P48544 1-419) with G151R
As to the kind of experiment: cell-based. As to conditions: for dose response on KCNJ5^G151R: tested at 1.1, 3.3 and 10 μM; for inhibition of KCNJ5^MUT (structure-activity statement): macrolide series, dilution curves. As for the experimental part:
as §1, §2, §3, §4, §5
Levels of ATP in uninduced and induced cells without added test compound defined 100% and 0% effect, respectively, and served as a proxy for lethality.

The mark [1] stands for this setting: 10-point dilution 20 to 0.0391 μM, N=3, four-parameter fit.

Numbering of substitutions follows the chain as printed.

As to `CC[C@H]1OC(=O)[C@H](C)[C@@H](O[C@H]2C[C@@](C)(OC)[C@@H](O)[C@H](C)O2)[C@H](C)[C@@H](O[C@@H]2O[C@H](C)C[C@H](N(C)C)[C@H]2O)[C@@]2(C)C[C@@H](C)[C@@]3(O[C@@]1(C)[C@H](O)[C@H]3C)O2` [Anhydroerythromycin A, anhydroerythromycin A], on KCNJ5^WT, the “WT IC50” value is recorded as “No fit”. Further, the “L168R IC50” value at KCNJ5^L168R (setting [1]) was “No fit”. On KCNJ5^G151R (setting [1]), this compound yielded a G151R maximum inhibition of 60.00%, a G151R minimum inhibition of 5.61% and a half-maximal inhibitory concentration (IC50) of 8.6 µM.

Consider `CCN(CC)CCN1c2ccccc2Sc2ccc3ccccc3c21` [NSC18883], for which the “dose response on KCNJ5^L168R” value at KCNJ5^L168R is listed as “either high IC50 values or low maximum inhibition”. The “dose response on KCNJ5^G151R” value on KCNJ5^G151R is “potent inhibitors”.

On to `C1CCC(N=C(NC23CC4CC(CC(C4)C2)C3)N2CCOCC2)CC1.Cl` [YU224116, U-37883A-HCl], for which the “dose response on KCNJ5^L168R” value at KCNJ5^L168R was “either high IC50 values or low maximum inhibition”. Further, the “% effect (1)” value on KCNJ5^G151R (10 μM, ATP level 72 h after induction, uninduced = 100%, induced = 0% effect, first of the two runs (primary screen / hit pick)) came to 49.9%. In addition, the “% effect (2)” value on KCNJ5^G151R (10 μM, ATP level 72 h after induction, uninduced = 100%, induced = 0% effect, second of the two runs (primary screen / hit pick, confirmatory testing)) was 65.8%. Besides, at KCNJ5^G151R (10 μM, mean of primary screen and hit pick), the mean % effect is 57.9%. Besides, the “dose response on KCNJ5^G151R” value on KCNJ5^G151R is “potent inhibitors”.

In the case of `CC[C@H]1OC(=O)[C@H](C)[C@@H](O)[C@H](C)[C@@H](O[C@@H]2O[C@H](C)C[C@H](N(C)C)[C@H]2O)[C@](C)(O)C[C@@H](C)/C(=N\OCOCCOC)[C@H](C)[C@@H](O)[C@]1(C)O` [decladinose roxithromycin], the “inhibition of KCNJ5^MUT (structure-activity statement)” value against KCNJ5^G151R is listed as “loss of inhibition”.

Take `CO[C@@H]1[C@@H](O[C@@H]2O[C@H](C)[C@@H](O[C@H]3C[C@@](C)(O)[C@@H](OC(=O)CC(C)C)[C@H](C)O3)[C@H](N(C)C)[C@H]2O)[C@@H](CC=O)C[C@@H](C)[C@@H](O)/C=C/C=C/C[C@@H](C)OC(=O)C[C@H]1OC(C)=O` [josamycin]: at KCNJ5^G151R (10 μM), the “activity against KCNJ5^G151R in the primary screen” value (from here on “activity against KCNJ5^G151R”) is reported as “little or no activity”.

Regarding `CO[C@@H]1[C@@H](O[C@@H]2O[C@H](C)[C@@H](O[C@H]3C[C@@](C)(O)[C@@H](OC(=O)CC(C)C)[C@H](C)O3)[C@H](N(C)C)[C@H]2O)[C@@H](CC=O)C[C@@H](C)[C@@H](O)/C=C/C=C/C[C@@H](C)OC(=O)C[C@H]1O` [kitasamycin], on KCNJ5^G151R (10 μM), the “activity against KCNJ5^G151R” value is “little or no activity”.

In the case of `C[C@@H]1C/C=C/C=C/C=C/C=C/[C@H](O[C@@H]2O[C@H](C)[C@@H](O)[C@H](N)[C@@H]2O)C[C@@H]2O[C@](O)(C[C@@H](O)C[C@H]3O[C@@H]3/C=C/C(=O)O1)C[C@H](O)[C@H]2C(=O)O` [natamycin], the “activity against KCNJ5^G151R” value on KCNJ5^G151R (10 μM) is “little or no activity”.

For the compound `CO[C@H]1C[C@H](O[C@H]2[C@H](C)[C@@H](O[C@@H]3O[C@H](C)C[C@H](N(C)C)[C@H]3O)[C@@H](C)C[C@@]3(CO3)C(=O)[C@H](C)[C@@H](O)[C@@H](C)[C@@H](C)OC(=O)[C@@H]2C)O[C@@H](C)[C@@H]1O` [oleandomycin], the “activity against KCNJ5^G151R” value on KCNJ5^G151R (10 μM) is reported as “little or no activity”.

In the case of `CC[C@@H]1C=CC=CC[C@H](C)[C@@H](O)[C@@H](C)C(=O)[C@H](C)[C@@H](O)[C@H](C)C(=O)[C@H](C)[C@@H](O)[C@H](C)C=CC(=O)O[C@H]2[C@@H](C)[C@@H](CC1)O[C@@]1(CC[C@@H](C)[C@@H](C[C@H](C)O)O1)[C@@H]2C` [oligomycin C], the “activity against KCNJ5^G151R” value on KCNJ5^G151R (10 μM) is “little or no activity”.

With `C=C1c2cccc(O)c2C(=O)C2=C(O)[C@]3(O)C(=O)C(C(N)=O)=C(O)[C@@H](N(C)C)[C@@H]3[C@@H](O)[C@H]12` [rondomycin], the “activity against KCNJ5^G151R” value on KCNJ5^G151R (10 μM) is “little or no activity”.

For the compound `CC[C@H]1OC(=O)[C@H](C)C(=O)[C@H](C)[C@@H](O[C@@H]2O[C@H](C)C[C@H](N(C)C)[C@H]2O)[C@](C)(OC)C[C@@H](C)C(=O)[C@H](C)[C@H]2N(CCCCn3cnc(-c4cccnc4)c3)C(=O)O[C@]12C` [telithromycin], the “inhibition of KCNJ5^MUT (structure-activity statement)” value at KCNJ5^G151R was “loss of inhibition”. For the same compound, the “activity against KCNJ5^G151R” value at KCNJ5^G151R (10 μM) is “below activity threshold”.

On to `CO[C@H]1C[C@H](O[C@H]2[C@H](C)[C@@H](O[C@@H]3O[C@H](C)C[C@H](N(C)C)[C@H]3OC(C)=O)[C@@H](C)C[C@@]3(CO3)C(=O)[C@H](C)[C@@H](OC(C)=O)[C@@H](C)[C@@H](C)OC(=O)[C@@H]2C)O[C@@H](C)[C@@H]1OC(C)=O` [troleandomycin], for which the “activity against KCNJ5^G151R” value on KCNJ5^G151R (10 μM) is recorded as “little or no activity”.

With spiramycin, the “activity against KCNJ5^G151R” value on KCNJ5^G151R (10 μM) was “little or no activity”.
